{"source": "patent US12377069B2", "about": "“Compounds, compositions, methods of using, and methods for preparing compounds” (UNIVERSITY OF LOUISVILLE RESEARCH FOUNDATION, INC., priority 2018, dated 2025)", "key": {"[1]": {"tested_on": "C57BL/6 mice", "experiment": "TNBS-induced colitis", "format": "in vivo, mouse", "details": "for colitis phenotype, therapeutic regimen: 20 mg/kg from 24 h post-TNBS; for TNBS-induced colon shortening and colonic inflammation, pre-treatment / barrier function, pre-treatment: oral 20 mg/kg daily one week before TNBS, none after"}, "[2]": {"tested_on": "Caco-2 monolayer cells", "experiment": "Caco2 monolayer TEER and FITC-dextran permeability (EtOH, LPS, HMGB1)", "format": "cell-based, human", "details": "for TEER / Ocln expression: EtOH 350 mM (2%); for TEER: 10, 25, 50 μM pre-treatment 24 h; for Ocln expression: 10, 25, 50 μM, 24 h", "procedure": "FIG. 13: Caco2 cells were grown as monolayer on transwell membrane filters. (A) Cells were treated with 40 mM EtOH and FITC-dextran permeability was performed in time dependent manner. (B-F) Cells were treated with respective Urolithins (50 μM) and Ellagic acid (50 μM) or different doses of UroA (B) for 24 hrs. After treatments, cells were treated with ethanol (40 mM) (B, D) or 400 mM (E, F), LPS (100 ng/mL), HMGB1 (500 ng/mL) for 2 hrs and washed with PBS. FITC-Dex (1 mg/mL) solution was added (100 μl) on apical side. Permeability of FITC-Dex across the monolayer as well as TEER values were measured after 2 hr. […] Confocal images of TJ proteins staining. Statistics performed using unpaired t-test. *p<0.05, **p<0.01, *** p<0.001, Error bars, ±SEM.\nCaco2 cells on transwell membrane were pre-treated with vehicle or UroA or UAS03 (10, 25, 50 μM) for 24 h followed by addition of alcohol (2%) for 24 h. TEER values (A) and the FITC-dextran permeability assay (B) was performed as described in FIG. 2. Statistics performed using unpaired t-test using Graphpad Prism software. Error bars, ±SEM; ***p<0.001; **p<0.01. (C) Caco2 cells were treated with alcohol (EtOH) (350 mM or 2%) in the presence or with UroA or UAS03 (10, 25, 50 μM) for 24 h and determined expression of Ocln by Western blots. Representative of 3 independent blots was shown.\nUroA upregulate TJ proteins and protect against EtOH induced damage. […] For this purpose, we utilized Caco-2 monolayer cells on transwell membranes and performed transepithelial electrical resistance (TEER) and FITC-dextran permeability assays. […] Gut barrier dysfunction leads to elevated intestinal permeability thus increasing circulating levels of endotoxins. Endotoxins such as LPS (representative for PAMP) and HMGB1 (representative for DAMP) induce several inflammatory cytokines, chemokines and ROS leading to further enhancement of systemic inflammation to promote pathogenesis of ALD.\nWe tested whether UAS03 could protect against higher dose of EtOH (350 mM) induced barrier dysfunction in Caco2 monolayer cells."}, "[3]": {"tested_on": "C57BL/6 mice", "experiment": "In vivo Miles assay (VEGF)", "details": "20 mg/kg oral gavage; VEGF 2.5 ng/mouse", "procedure": "Acute intoxication of alcohol can induce microvasculature leakage as well as direct exposure to endothelium leads to disruption of endothelial integrity. […] In addition, increased endothelial permeability enhances the extravasation of immune cells into liver leading to increased inflammation. To examine the effect of UroA/UAS03 on endothelial cell permeability, we utilized in vivo Evans Blue permeability assay. Briefly, C57BL/6 mice (n=4/group) were given LPS (100 μg) i.p. followed by treatment with UAS03 or UroA (20 mg/kg) after 1 h and 18 h. Evans blue (i.v.) was given to mice (24 h post LPS treatment) and 30 min later mice were euthanized and the Evans Blue from lung and liver tissues was extracted using formamide. The levels of Evans Blue was determined by OD at 620 nm. […] To evaluate direct impact of UroA or UAS03 on endothelial barrier function, we used in vivo Miles assay to test blood vessel permeability. We used vascular endothelial growth factor (VEGF) as vasodilator. In this assay, C57BL/6 mice (n=3 per group) were given vehicle or UroA or UAS03 (20 mg/kg; oral gavage). After 3 h, Evans blue (100 μL of 1% solution) was administered i.v. followed by intra-dermal administration of VEGF (2.5 ng/mouse) or PBS (control). […]"}, "[4]": {"tested_on": "C57BL/6 mice", "experiment": "DSS-induced chronic colitis", "format": "in vivo, mouse", "details": "4 cycles of 2% DSS; for colon weight/length ratio / expression of Cldn4 in colons / inflammation (serum IL-6, IL-10, TNF-α, colonic tissue MPO levels) / shortening of colons: 20 mg/kg/day; for DSS-induced chronic colitis: 20 mg/kg/day on 4th and 6th day of each cycle"}}}
{"smiles": "Oc1ccc2c(c1)COc1cc(O)ccc1-2", "note": "[UAS03, 6H-benzo[c]chromene-3,8-diol]", "values": [{"measurement": "colitis phenotype, therapeutic regimen", "setting": "[1]", "value": "reversed the colitis phenotype"}, {"measurement": "TNBS-induced colon shortening and colonic inflammation, pre-treatment", "setting": "[1]", "value": "protected"}, {"measurement": "barrier function, pre-treatment", "setting": "[1]", "value": "enhanced barrier function"}, {"measurement": "TEER", "setting": "[2]", "value": "increased TEER"}, {"measurement": "Ocln expression", "setting": "[2]", "value": "increased TJ protein"}, {"measurement": "endothelial barrier leakage induced by VEGF", "setting": "[3]", "value": "protected from endothelial barrier leakage"}, {"measurement": "colon weight/length ratio", "setting": "[4]", "value": "increased colon weight/length ratio"}, {"measurement": "expression of Cldn4 in colons", "setting": "[4]", "value": "enhanced the expression of Cldn4"}, {"measurement": "inflammation (serum IL-6, IL-10, TNF-α, colonic tissue MPO levels)", "setting": "[4]", "value": "reduced inflammation"}, {"measurement": "shortening of colons", "setting": "[4]", "value": "reduced shortening of colons"}, {"measurement": "DSS-induced chronic colitis", "setting": "[4]", "value": "protected from DSS-induced colitis"}]}
{"smiles": "O=c1oc2cc(O)ccc2c2ccc(O)cc12", "note": "[UroA, 3,8-dihydroxy-6H-dibenzo[b,d]pyran-6-one]", "values": [{"measurement": "colitis phenotype, therapeutic regimen", "setting": "[1]", "value": "reversed the colitis phenotype"}, {"measurement": "TNBS-induced colon shortening and colonic inflammation, pre-treatment", "setting": "[1]", "value": "protected"}, {"measurement": "barrier function, pre-treatment", "setting": "[1]", "value": "enhanced barrier function"}, {"measurement": "TEER", "setting": "[2]", "value": "increased TEER"}, {"measurement": "Ocln expression", "setting": "[2]", "value": "increased TJ protein"}, {"measurement": "TEER values", "setting": "[2]; EtOH 400 mM", "value": "enhanced TEER values"}, {"measurement": "EtOH induced damage of tight junction proteins (ZO-1, Ocln)", "setting": "[2]; Western blots, confocal images", "value": "protects against EtOH induced damage of tight junction proteins"}, {"measurement": "endothelial barrier leakage induced by VEGF", "setting": "[3]", "value": "protected from endothelial barrier leakage"}, {"measurement": "colon weight/length ratio", "setting": "[4]", "value": "increased colon weight/length ratio"}, {"measurement": "expression of Cldn4 in colons", "setting": "[4]", "value": "enhanced the expression of Cldn4"}, {"measurement": "inflammation (serum IL-6, IL-10, TNF-α, colonic tissue MPO levels)", "setting": "[4]", "value": "reduced inflammation"}, {"measurement": "shortening of colons", "setting": "[4]", "value": "reduced shortening of colons"}, {"measurement": "DSS-induced chronic colitis", "setting": "[4]", "value": "protected from DSS-induced colitis"}]}
